Measured values from patent publication US4579866A, “Phenylacetamides as anti-allergy, anti-asthma and anti-inflammatory agents” (USV Pharmaceutical Corp., priority 1984, dated 1986).

Legend:
[1] = biological target: T1, HUMAN 5 LIPOXYGENASE (Homo sapiens, UniProt P09917); experiment: Biosynthesis of 5-HETE by human polymorphonuclear leukocytes in vitro (inhibition of human 5-lipoxygenase); assay type: cell-based; details: human neutrophils, A23187, 3 minutes at 30° C.; for IC50: concentration at which 50% inhibition is observed, read-out: INHIBITION OF HUMAN 5 LIPOXYGENASE, I50
T1 construct: A suspension of human neutrophils in buffer; endogenous in cells; host or cells: human neutrophils (PMNs) from venous blood of healthy volunteers
T1 sequence (P09917 1-674): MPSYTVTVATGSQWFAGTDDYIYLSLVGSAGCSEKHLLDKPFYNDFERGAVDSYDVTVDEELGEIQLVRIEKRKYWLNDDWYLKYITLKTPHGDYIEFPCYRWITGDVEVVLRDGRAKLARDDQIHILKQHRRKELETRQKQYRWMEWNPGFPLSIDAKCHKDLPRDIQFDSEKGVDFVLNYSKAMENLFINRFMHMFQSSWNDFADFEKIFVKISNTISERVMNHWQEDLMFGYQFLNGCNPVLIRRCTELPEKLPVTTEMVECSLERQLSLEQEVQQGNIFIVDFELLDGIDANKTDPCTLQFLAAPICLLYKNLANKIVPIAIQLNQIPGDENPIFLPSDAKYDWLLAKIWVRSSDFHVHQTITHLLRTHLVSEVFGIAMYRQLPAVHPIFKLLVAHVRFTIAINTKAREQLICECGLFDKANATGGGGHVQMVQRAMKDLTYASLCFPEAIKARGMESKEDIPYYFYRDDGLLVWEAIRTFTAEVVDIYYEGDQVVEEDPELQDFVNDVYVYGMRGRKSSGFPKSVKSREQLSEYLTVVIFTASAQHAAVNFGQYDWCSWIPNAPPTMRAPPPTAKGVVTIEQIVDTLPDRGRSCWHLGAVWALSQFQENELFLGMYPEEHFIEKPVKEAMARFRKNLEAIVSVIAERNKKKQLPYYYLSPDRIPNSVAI
Method: Protocol for the Biosynthesis of 5-HETE (5(S)-Hydroxyeicosatetraenoic Acid) by Human Polymorphonuclear Leukocytes In Vitro
(A) Isolation of Human Neutrophils
Freshly drawn venous blood from healthy human volunteers is mixed with 2 mM ethylenediamine tetraacetic acid, and is sedimented at 1×g over 6% dextran-saline. The leukocyte layer is aspirated, and the cells are concentrated by centrifugation and are layered over stacked Percoll® solutions, having densities of 1.072, 1.082 and 1.100, respectively. PMNs are isolated at the interface between the two densest layers after centrifugation at 400×g. Contaminating red blood cells are lysed by a short treatment of 0.16M ammonium chloride.
A suspension of human neutrophils in buffer is incubated for 3 minutes at 30° C. with (^14 C)-arachidonic acid (AA) and calcium ionophore A23187. Citric Acid (2M)/NDGA*(10 mM) is used to quench the reaction. Following the addition of a trace amount of (^3 H)-5-HETE together with an excess of unlabeled 5-HETE to each tube, the mixture is extracted with chloroform/methanol. The organic layer is washed with dilute hydrochloric acid and the total volume is transferred to glass tubes and dried in vacuo. The residue is dissolved in a small volume of chloroform and is spotted on silica gel TLC sheets, which are developed with an ethyl acetate/iso-octane/water/acetic acid solvent system (11/5/10/1 v/v). The 5-HETE spots are visualized under UV light, cut out and placed in scintillation vials for quantitation of radioactivity. After adjusting for the extraction efficiency, the amount (pmole) of (^14 C)-5-HETE in each of the tubes is calculated. The net pmoles of 5-HETE are obtained by subtracting the pmole of 5-HETE in the tubes containing buffer alone (blank) from the pmoles of 5-HETE in the tubes containing […]. The ability of the test compound to modulate the activity of this enzyme is determined by a decrease or increase in the net amount of 5-HETE produced. This assay is a modification of that described by Bach and Brashler for rat peritoneal cells: Bach, M., Brashler, J.: Ionophore A23187-Induced Production of SRS-A by Rat Peritoneal Cells In Vitro: Evidence for Production by Mononuclear Cells. J. Immunol. 120 998-1005 (1978).
*NDGA-nordihydroguaiaretic acid
(§1) If the percentage of inhibition exceeds 50%, the compounds are then evaluated in terms of response over a range of concentrations. From a plot of response against concentration, the I50 value is obtained. The I50 value is the concentration at which 50% inhibition is observed.

[2] = biological target: T2, RAT 5-LIPOXYGENASE (Rattus norvegicus, UniProt P12527); experiment: Biosynthesis of 5-HETE by rat polymorphonuclear leukocytes in vitro (inhibition of rat 5-lipoxygenase); assay type: cell-based; details: rat neutrophils, A23187, 3 minutes at 30° C.; concentration at which 50% inhibition is observed; read-out: INHIBITION OF RAT 5-LIPOXYGENASE, I50
T2 construct: A suspension of rat neutrophils in buffer; endogenous in cells; host or cells: rat neutrophils (polymorphonuclear leukocytes)
T2 sequence (P12527 1-673): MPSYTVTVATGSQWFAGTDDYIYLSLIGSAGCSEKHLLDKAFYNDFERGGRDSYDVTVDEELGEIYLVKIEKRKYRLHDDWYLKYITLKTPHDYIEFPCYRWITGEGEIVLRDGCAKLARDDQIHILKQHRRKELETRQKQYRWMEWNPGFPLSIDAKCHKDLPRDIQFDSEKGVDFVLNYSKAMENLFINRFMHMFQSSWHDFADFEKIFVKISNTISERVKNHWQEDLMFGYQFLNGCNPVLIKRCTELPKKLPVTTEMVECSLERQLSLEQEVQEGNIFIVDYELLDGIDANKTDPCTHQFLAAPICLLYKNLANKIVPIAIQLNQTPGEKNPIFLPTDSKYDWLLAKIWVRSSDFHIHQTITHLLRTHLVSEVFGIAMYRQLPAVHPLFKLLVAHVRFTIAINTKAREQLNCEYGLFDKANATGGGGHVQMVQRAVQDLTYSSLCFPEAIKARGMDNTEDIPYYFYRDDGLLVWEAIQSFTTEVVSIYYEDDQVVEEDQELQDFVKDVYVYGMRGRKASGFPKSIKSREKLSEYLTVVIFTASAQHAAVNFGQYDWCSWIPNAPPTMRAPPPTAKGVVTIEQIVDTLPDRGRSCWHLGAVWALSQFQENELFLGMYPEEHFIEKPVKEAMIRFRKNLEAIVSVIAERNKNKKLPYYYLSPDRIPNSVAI
Method: Protocol for the Biosynthesis of 5-HETE by Rat Polymorphonuclear Leukocytes In Vitro
A suspension of rat neutrophils in buffer is incubated for 3 minutes at 30° C. with [^14 C]-arachidonic acid (AA) and calcium ionophore A23187. Citric Acid (2M) NDGA (10 mM) is used to quench the reaction. Following the addition of a trace amount of (^3 H)-5-HETE together with an excess of unlabeled 5-HETE to each tube, the mixture is extracted with chloroform/methanol. The organic layer is washed with dilute acid and an aliquot is transferred to glass tubes and dried. The residue is dissolved in a small volume of chloroform and an aliquot is spotted on silica gel TLC sheets, which are developed with an ethyl acetate/isoctane/water/acetic acid solvent system. The 5-HETE spots are visualized under UV light, cut out and placed in scintillation vials for counting. After adjusting for the extraction efficiency, the amount (pmole) of [^14 C]-5-HETE in each of the tubes is quantitated. The net pmoles of 5-HETE are obtained by subtracting the pmoles of 5-HETE in the tubes containing buffer alone (blank) from the pmoles of 5-HETE in the tubes containing […]. The ability of the test compounds to modulate the activity of this enzyme is determined by a decrease or increase in the net amount of 5-HETE produced.
as §1

## COC(=O)[C@@H](Cc1ccccc1)NC(=O)Cc1ccc(OCC2CC2)c(Cl)c1 [3-Chloro-4-cyclopropylmethyloxyphenylacetyl-D-phenylalanine methyl ester]
[1]
  IC50: 50 µM
[2]
  IC50: 1 µM

## COC(=O)[C@@H](Cc1ccccc1)NC(=O)Cc1ccc(OC(C)C)c(Cl)c1 [3-Chloro-4-isopropyloxyphenylacetyl-D-phenylalanine methyl ester]
[1]
  inhibition at 30 µM: 95%
[2]
  IC50: 2 µM

## COC(=O)[C@@H](Cc1ccccc1)NC(=O)Cc1ccc(OCCc2ccccc2)c(Cl)c1 [3-Chloro-4-phenylethyloxyphenylacetyl-D-phenylalanine methyl ester]
[1]
  IC50: 7 µM
[2]
  IC50: 0.7 µM

## COC(=O)[C@@H](Cc1ccccc1)N(C)C(=O)Cc1ccc(OCCc2ccccc2)c(Cl)c1 [3-Chloro-4-phenylethyloxyphenylacetyl-N--methyl-D-phenylalanine methyl ester]
[1]
  inhibition at 30 µM: 28%
[2]
  IC50: 5 µM

## COC(=O)[C@@H](Cc1ccccc1)NC(=O)Cc1ccc(OCc2ccccc2)c(Cl)c1 [4-Benzyloxy-3-Chlorophenylacetyl-D-Phenylalanine Methyl Ester]
[1]
  IC50: 0.6 µM
[2]
  IC50: 0.25 µM

## COC(=O)[C@@H](Cc1c[nH]c2ccccc12)NC(=O)Cc1ccc(OCc2ccccc2)c(Cl)c1 [4-Benzyloxy-3-chlorophenylacetyl-D-tryptophan methyl ester]
[1]
  IC50: 14 µM
[2]
  IC50: 5.4 µM

## CN(CCc1ccccc1)C(=O)Cc1ccc(OCCc2ccccc2)c(Cl)c1 [N--[3-Chloro-4-phenylethyloxyphenylacetyl]-N--methyl-2-phenylethylamine]
[1]
  IC50: 8 µM
[2]
  IC50: 2.2 µM

## CN(CCc1ccccc1)C(=O)Cc1ccc(OCc2ccccc2)c(Cl)c1 [N--[4-Benzyloxy-3-chlorophenylacetyl]-N--methyl-2-phenylethylamine]
[1]
  IC50: 2 µM
[2]
  IC50: 4.2 µM
